Holding throughout (type): biochemical
What all share (details): 200 μg/ml Poly Glu-Tyr (4:1), ATP 1 uM, 90 min room temperature, luminescence

Assay [1] concerns the target T1, Recombinant JAK3 (Amino acids 781-1124) (Homo sapiens, UniProt P52333).
T1 construct: JAK3 (Amino acids 781-1124; NM_000215.3); made in house; host or cells: baculovirus expression system (Bac-to-Bac)
As to the kind of experiment: Kinase-Glo Luminescent Kinase Assay, recombinant JAK3. From the text: (§1) Recombinant JAK1 (Amino acids 850-1154; NM_002227.2), JAK2 (Amino acids 808-1132; NM_004972.3) and JAK3 (Amino acids 781-1124; NM_000215.3) used in the studies were expressed using Invitrogen's Bac-to-Bac baculovirus expression system according to manufacturer's instructions. Adenosine 5′-triphosphate was obtained from Sigma Aldrich chemicals (Cat # A7699). Poly Glu-Tyr (4:1) sodium salt was obtained from Sigma Aldrich (Cat # P0275), Kinase Glo® Luminescent Kinase assay kit was obtained from Promega (Cat # V6713) Kinase activity was assessed by Promega Kinase-Glo® Luminescent Kinase Assay kit using 200 μg/ml Poly Glu-Tyr (4:1) as substrate and ATP at 1 uM concentration. The reactions were carried out in 384 well plates in total reaction volume of 20 uL. Reaction mixtures contained 50 mM HEPES pH 7.4, 5 mM MgCl2, 1 mM DTT, 0.01% BSA, 0.01% Tween 20. Kinase was pre-incubated with compounds or 1% DMSO for 5 min before addition of substrate and ATP to check for inhibition. Kinase reactions were carried out at room temperature for 90 min. The reactions were stopped by adding 5 μl of Kinase Glo® reagent & 10 μl of reaction mixture followed by measuring luminescence. The luminescent signal is correlated with the amount of ATP present at the end of kinase reaction and is inversely correlated with the amount of kinase activity. For each data point, % inhibition is calculated based on uninhibited reaction (without compound) which is considered as 100% activity over no enzyme or substrate controls. Dose response data is then fit using a four parameter logistic equation using Graph-pad Prism 5 software to determine inhibition constant 50 (IC50).
In general terms: Kinase-Glo measures the ATP left after a reaction by luminescence.

The target of assay [2] is T2, Recombinant JAK2 (Amino acids 808-1132) (Homo sapiens, UniProt O60674).
T2 construct: JAK2 (Amino acids 808-1132; NM_004972.3); made in house; host or cells: baculovirus expression system (Bac-to-Bac)
T2 sequence (O60674 808-1132): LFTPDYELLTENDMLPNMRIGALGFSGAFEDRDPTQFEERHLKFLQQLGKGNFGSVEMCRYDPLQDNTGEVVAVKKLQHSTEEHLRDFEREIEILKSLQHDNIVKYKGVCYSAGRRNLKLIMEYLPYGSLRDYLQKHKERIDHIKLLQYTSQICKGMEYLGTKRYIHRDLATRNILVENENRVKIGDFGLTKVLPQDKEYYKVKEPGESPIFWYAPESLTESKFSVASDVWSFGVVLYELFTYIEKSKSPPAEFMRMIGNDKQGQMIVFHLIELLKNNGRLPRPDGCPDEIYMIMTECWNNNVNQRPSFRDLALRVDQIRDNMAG
The assay is described as follows: Kinase-Glo Luminescent Kinase Assay, recombinant JAK2.
Source text: as §1

Assay [3] addresses T3, Recombinant JAK1 (Amino acids 850-1154) (Homo sapiens, UniProt P23458).
T3 construct: Recombinant JAK1 (Amino acids 850-1154; NM_002227.2); made in house; host or cells: baculovirus expression system (Bac-to-Bac)
As to the kind of experiment: Kinase-Glo Luminescent Kinase Assay, recombinant JAK1.
Source text: as §1

Molecules are shown by their SMILES.

T1 sequence (P52333 781-1124): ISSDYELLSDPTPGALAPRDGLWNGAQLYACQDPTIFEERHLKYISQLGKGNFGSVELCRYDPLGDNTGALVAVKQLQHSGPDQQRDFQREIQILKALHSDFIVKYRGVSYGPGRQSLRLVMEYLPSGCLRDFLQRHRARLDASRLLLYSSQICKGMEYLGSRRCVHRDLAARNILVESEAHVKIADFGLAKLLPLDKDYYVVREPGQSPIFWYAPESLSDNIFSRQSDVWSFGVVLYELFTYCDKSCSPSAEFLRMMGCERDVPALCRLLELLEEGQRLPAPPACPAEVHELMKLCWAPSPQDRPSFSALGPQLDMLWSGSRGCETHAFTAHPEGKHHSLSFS
T3 sequence (P23458 850-1154): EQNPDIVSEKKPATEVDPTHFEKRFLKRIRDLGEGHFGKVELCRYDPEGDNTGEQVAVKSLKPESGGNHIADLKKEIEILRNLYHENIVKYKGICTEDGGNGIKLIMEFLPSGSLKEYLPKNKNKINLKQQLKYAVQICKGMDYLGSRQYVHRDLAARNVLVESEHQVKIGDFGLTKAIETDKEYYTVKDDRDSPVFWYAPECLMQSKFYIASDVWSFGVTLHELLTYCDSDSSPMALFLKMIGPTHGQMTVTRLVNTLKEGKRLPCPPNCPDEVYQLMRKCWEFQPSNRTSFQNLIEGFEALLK

Broadly, the IC50 is the concentration that inhibits the measured activity by half. For the compound `CC(C)(C)OC(=O)NC1CCN(c2ccnc3cnc4[nH]ccc4c23)C1` (stereo not shown) [Comp. 124, tert-Butyl N-[1-(3H-pyrrolo[3,2-f][1,7]naphthyridin-9-yl)pyrrolidin-3-yl]carbamate], the IC50 in assay [1] and in assay [2] was more than 20 nM each time.

For the compound `O=C(CC(F)(F)F)N1CCCC(c2ccnc3cnc4[nH]ccc4c23)C1` (stereo not shown) [Ex. 4, 3,3,3-trifluoro-1-[3-(3H-pyrrolo[3,2-f][1,7]naphthyridin-9-yl)-1-piperidyl]propan-1-one], the IC50 in assay [3] and in assay [1] was 1 to 20 nM throughout.

On to `CC(C)CC(=O)N1CCCC(c2ccnc3cnc4[nH]ccc4c23)C1` (stereo not shown) [Ex. 5, 3-methyl-1-[3-(3H-pyrrolo[3,2-f][1,7]naphthyridin-9-yl)-1-piperidyl]butan-1-one], for which the IC50 in assay [3] is 1 to 20 nM; in assay [1], more than 20 nM.

Regarding `O=S(=O)(C1CC1)N1CCCC(c2ccnc3cnc4[nH]ccc4c23)C1` (stereo not shown) [Ex. 6, 9-(1-cyclopropylsulfonyl-3-piperidyl)-3H-pyrrolo[3,2-f][1,7]naphthyridine], the IC50 in assay [3] and in assay [1] was 1 to 20 nM throughout.

With `N#CCS(=O)(=O)N1CCCC(c2ccnc3cnc4[nH]ccc4c23)C1` (stereo not shown) [Ex. 7, 2-[[3-(3H-pyrrolo[3,2-f][1,7]naphthyridin-9-yl)-1-piperidyl]sulfonyl]acetonitrile], the IC50 in assay [3] and in assay [1] was 1 to 20 nM each time.

As to `CC(C)CS(=O)(=O)N1CCCC(c2ccnc3cnc4[nH]ccc4c23)C1` (stereo not shown) [Ex. 8, 9-(1-isobutylsulfonyl-3-piperidyl)-3H-pyrrolo[3,2-f][1,7]naphthyridine], the IC50 in assay [3] and in assay [1] was 1 to 20 nM in each case.

With `CS(=O)(=O)N1CCC[C@H](c2ccnc3cnc4[nH]ccc4c23)C1` [Ex. 10A, (R)9-(1-methylsulfonyl-3-piperidyl)-3H-pyrrolo[3,2-f][1,7]naphthyridine], the IC50 in assay [1] and in assay [2] was more than 20 nM throughout.

Regarding `O=C(CC(F)(F)F)N1CC[C@@H](c2ccnc3cnc4[nH]ccc4c23)C1` [Ex. 15B, (S)3,3,3-trifluoro-1-[3-(3H-pyrrolo[3,2-f][1,7]naphthyridin-9-yl)pyrrolidin-1-yl]propan-1-one], the IC50 in assay [1] was more than 20 nM; in assay [2] it was 1 to 20 nM.

As for `N#CCS(=O)(=O)N1CC[C@H](c2ccnc3cnc4[nH]ccc4c23)C1` [Ex. 16A, (R)2-[3-(3H-pyrrolo[3,2-f][1,7]naphthyridin-9-yl)pyrrolidin-1-yl]sulfonylacetonitrile], the figures for the IC50 in assay [1] and in assay [2] were more than 20 nM and 1 to 20 nM, respectively.

Turning to `N#CCS(=O)(=O)N1CC[C@@H](c2ccnc3cnc4[nH]ccc4c23)C1` [Ex. 16B, (S)2-[3-(3H-pyrrolo[3,2-f][1,7]naphthyridin-9-yl)pyrrolidin-1-yl]sulfonylacetonitrile], the IC50 in assay [1] and in assay [2] was more than 20 nM each time.

As for `N#CCC(=O)N1CCC[C@H](c2ncnc3cnc4[nH]ccc4c23)C1` [Ex. 23B, (S)3-Oxo-3-[3-(3H-3,4,6,8-tetraazacyclopenta[a]naphthalen-9-yl)-piperidin-1-yl]-propionitrile], the IC50 in assay [1] and in assay [2] was 1 to 20 nM throughout.

For `O=C(CC(F)(F)F)N1CCC[C@H](c2ncnc3cnc4[nH]ccc4c23)C1` [Ex. 24B, (S)3,3,3-Trifluoro-1-[3-(3H-3,4,6,8-tetraazacyclopenta[a]naphthalen-9-yl)-piperidin-1-yl]-propan-1-one], the IC50 in assay [1] and in assay [2] was 1 to 20 nM each time.

Regarding `O=C(NC1CC1)N1CCCC(c2ccnc3cnc4[nH]ccc4c23)C1` (stereo not shown) [Ex. 46, N-cyclopropyl-3-(3H-pyrrolo[3,2-f][1,7]naphthyridin-9-yl)piperidine-1-carboxamide], the half-inhibitory concentration (IC50) in assay [1] and in assay [2] was more than 20 nM throughout.

With `O=C(OCC(F)(F)F)N1CCCC(c2ccnc3cnc4[nH]ccc4c23)C1` (stereo not shown) [Ex. 51, 2,2,2-trifluoroethyl 3-(3H-pyrrolo[3,2-f][1,7]naphthyridin-9-yl)piperidine-1-carboxylate], the IC50 in assay [1] and in assay [2] was 1 to 20 nM each time.

As for `CC(C)OC(=O)N1CCCC(c2ccnc3cnc4[nH]ccc4c23)C1` (stereo not shown) [Ex. 52, Isopropyl 3-(3H-pyrrolo[3,2-f][1,7]naphthyridin-9-yl)piperidine-1-carboxylate], the IC50 in assay [1] and in assay [2] was 1 to 20 nM throughout.

In the case of `COCCOC1CCCN(c2ccnc3cnc4[nH]ccc4c23)C1` (stereo not shown) [Ex. 57, 9-[3-(2-methoxyethoxy)-1-piperidyl]-3H-pyrrolo[3,2-f][1,7]naphthyridine], the IC50 in assay [1] and in assay [2] was more than 20 nM each time.

For `c1cc(N2CCCCC2)c2c(cnc3[nH]ccc32)n1` [Ex. 58, 9-(1-piperidyl)-3H-pyrrolo[3,2-f][1,7]naphthyridine], the IC50 in assay [1] and in assay [2] was 1 to 20 nM each time.

`CN(C(=O)CC1CC1)C1CCCN(c2ccnc3cnc4[nH]ccc4c23)C1` (stereo not shown) [Ex. 63, 2-cyclopropyl-N-methyl-N-[1-(3H-pyrrolo[3,2-f][1,7]naphthyridin-9-yl)-3-piperidyl]acetamide]: the IC50 in assay [3] and in assay [1] was more than 20 nM each time.

Turning to `CC(C)CNC(=O)C1CCCN(c2ccnc3cnc4[nH]ccc4c23)C1` (stereo not shown) [Ex. 67, N-isobutyl-1-(3H-pyrrolo[3,2-f][1,7]naphthyridin-9-yl)piperidine-3-carboxamide], the IC50 in assay [3] and in assay [1] was more than 20 nM in each case.

In the case of `CS(=O)(=O)NC1CCCN(c2ccnc3cnc4[nH]ccc4c23)C1` (stereo not shown) [Ex. 73, N-[1-(3H-pyrrolo[3,2-f][1,7]naphthyridin-9-yl)-3-piperidyl] methanesulfonamide], the values for the IC50 in assay [3] and in assay [1] were more than 20 nM and 1 to 20 nM, respectively.

Take `CC(C)NC(=O)C1CCN(c2ccnc3cnc4[nH]ccc4c23)CC1` [Ex. 75, N-isopropyl-1-(3H-pyrrolo[3,2-f][1,7]naphthyridin-9-yl)piperidine-4-carboxamide]: the IC50 in assay [3] and in assay [1] was more than 20 nM in each case.

Regarding `O=C(NC1CC1)C1CCN(c2ccnc3cnc4[nH]ccc4c23)CC1` [Ex. 76, N-cyclopropyl-1-(3H-pyrrolo[3,2-f][1,7]naphthyridin-9-yl)piperidine-4-carboxamide], the IC50 in assay [3] and in assay [1] was more than 20 nM throughout.

On to `COCCNC(=O)C1CCN(c2ccnc3cnc4[nH]ccc4c23)CC1` [Ex. 77, N-(2-methoxyethyl)-1-(3H-pyrrolo[3,2-f][1,7]naphthyridin-9-yl)piperidine-4-carboxamide], for which the IC50 in assay [3] and in assay [1] was more than 20 nM throughout.

`O=C(NCC(F)(F)F)C1CCN(c2ccnc3cnc4[nH]ccc4c23)CC1` [Ex. 78, 1-(3H-pyrrolo[3,2-f][1,7]naphthyridin-9-yl)-N-(2,2,2-trifluoroethyl)piperidine-4-carboxamide]: the IC50 in assay [3] and in assay [1] was more than 20 nM in each case.

In the case of `CN(C(=O)C1CCCN(c2ccnc3cnc4[nH]ccc4c23)C1)C1CC1` (stereo not shown) [Ex. 79, N-cyclopropyl-N-methyl-1-(3H-pyrrolo[3,2-f][1,7]naphthyridin-9-yl)piperidine-3-carboxamide], the figures for the IC50 in assay [3] and in assay [1] were 1 to 20 nM and more than 20 nM, respectively.

On to `CN(CC(F)(F)F)C(=O)C1CCCN(c2ccnc3cnc4[nH]ccc4c23)C1` (stereo not shown) [Ex. 80, N-methyl-1-(3H-pyrrolo[3,2-f][1,7]naphthyridin-9-yl)-N-(2,2,2-trifluoroethyl)piperidine-3-carboxamide], for which the IC50 in assay [3] and in assay [1] was 1 to 20 nM throughout.

Consider `CN(CC(F)(F)F)C(=O)C1CCN(c2ccnc3cnc4[nH]ccc4c23)CC1` [Ex. 82, N-methyl-1-(3H-yrrolo[3,2-f][1,7]naphthyridin-9-yl)-N-(2,2,2-trifluoroethyl) piperidine-4-carboxamide], for which the IC50 in assay [3] was more than 20 nM; in assay [1] it was 1 to 20 nM.

As to `O=C(CC(F)(F)F)N1CCN(c2ccnc3cnc4[nH]ccc4c23)CC1` [Ex. 103, 3,3,3-trifluoro-1-[4-(3H-pyrrolo[3,2-f][1,7]naphthyridin-9-yl)piperazin-1-yl]propan-1-one], the IC50 in assay [3] and in assay [1] was more than 20 nM throughout.

As to `O=S(=O)(CC(F)(F)F)N1CCN(c2ccnc3cnc4[nH]ccc4c23)CC1` [Ex. 104, 9-[4-(2,2,2-trifluoroethylsulfonyl)piper-azin-1-yl]-3H-pyrrolo[3,2-f][1,7]naphthyridine], the IC50 in assay [3] and in assay [1] was more than 20 nM in each case.

The record behind these values is US9115133B2, “Substituted fused tricyclic compounds, compositions and medicinal applications thereof” (Advinus Therapeutics Limited, priority 2011, dated 2015).
